From ChEMBL document CHEMBL1275362, “Synthesis of new antifungal peptides selective against Cryptococcus neoformans” (2010) come the findings set out here.

In brackets after ≈: the same amount, converted by molar mass. Starred links: 1 amine or outer side, 2 acyl side, 3 side chain; linkers in the order of their positions; H or OH if unused. Non-standard residues stand in square brackets, D forms with d. Residues, ends and D or L forms follow the SMILES beside them. X1 = O=C([C@H](CC1=NC=NC1)N[*:1])[*:2] Some results are limits rather than exact numbers.

What all share (format): functional
One assay relates to Nakaseomyces glabratus. The assay can be described thus: Antifungal activity against Candida glabrata after 48 hrs by broth microdilution method. A general note: Dilution methods test growth across graded concentrations, often in twofold steps.
In assay [1] the test system is Cryptococcus neoformans. Briefly: Antifungal activity against Cryptococcus neoformans ATCC 52817 after 72 hrs by broth microdilution method. The settings on record: ATCC 52817, 72 h.
Assay [2] deals with Cryptococcus neoformans. The assay can be described thus: Antifungal activity against Cryptococcus neoformans H99 after 72 hrs by broth microdilution method. The settings on record: H99, 72 h.
Another assay relates to Pichia kudriavzevii. Briefly: Antifungal activity against Candida krusei after 48 hrs by broth microdilution method.
A further assay has as its system Candida parapsilosis. The assay can be described thus: Antifungal activity against Candida parapsilosis after 48 hrs by broth microdilution method. To be noted: Lodderomyces parapsilosis.
For another assay, the system named is Candida albicans. Briefly: Antifungal activity against Candida albicans after 48 hrs by broth microdilution method.
A further assay relates to Candida tropicalis. Briefly: Antifungal activity against Candida tropicalis after 48 hrs by broth microdilution method.

Consider `N=C(N)NCCC[C@H](NC(=O)[C@H](Cc1c[nH]c2ccccc12)NC(=O)[C@H](Cc1c[nH]c2ccccc12)NC(=O)[C@H](CCCNC(=N)N)NC(=O)[C@H](CCCNC(=N)N)NC(=O)[C@H](CC1=NC=NC1)NC(=O)CNC(=O)[C@@H](N)Cc1c[nH]cn1)C(=O)N[C@@H](Cc1ccccc1)C(=O)O` (H-HG[X1]RRWWRF-OH), for which the MIC against Nakaseomyces glabratus was 256 µg/mL (≈ 191 µM); with Cryptococcus neoformans [1] it was 8 µg/mL (≈ 5.98 µM); in the assay on Cryptococcus neoformans [2], 8 µg/mL (≈ 5.98 µM); against Pichia kudriavzevii it was 256 µg/mL (≈ 191 µM); with Candida parapsilosis it was over 512 µg/mL; against Candida albicans, 256 µg/mL (≈ 191 µM). The minimum inhibitory concentration (MIC) against Candida tropicalis came out at 256 µg/mL (≈ 191 µM). Further, the MIC90 is over 512 µg/mL with Nakaseomyces glabratus; 16 µg/mL (≈ 12 µM) against Cryptococcus neoformans [2]; 512 µg/mL (≈ 383 µM) against Pichia kudriavzevii; 512 µg/mL (≈ 383 µM) against Candida parapsilosis; over 512 µg/mL against Candida albicans; over 512 µg/mL in the assay with Candida tropicalis.
For `N=C(N)NCCC[C@@H]1NC(=O)[C@H](CCCNC(=N)N)NC(=O)[C@H](Cc2c[nH]c3ccccc23)NC(=O)[C@H](Cc2c[nH]c3ccccc23)NC(=O)[C@H](CCCNC(=N)N)NC(=O)[C@H](Cc2ccccc2)NC(=O)[C@H](Cc2c[nH]cn2)NC1=O` (cyclo(FRWWRRH)), the minimal inhibitory concentration (MIC) came to 64 µg/mL (≈ 56.9 µM) in the assay on Nakaseomyces glabratus; 8 µg/mL (≈ 7.11 µM) against Cryptococcus neoformans [1]; 4 µg/mL (≈ 3.55 µM) against Cryptococcus neoformans [2]; 32 µg/mL (≈ 28.4 µM) against Pichia kudriavzevii; 64 µg/mL (≈ 56.9 µM) against Candida parapsilosis; 64 µg/mL (≈ 56.9 µM) in the assay with Candida albicans. In the assay with Candida tropicalis, this compound had a minimal inhibitory concentration (MIC) of 64 µg/mL (≈ 56.9 µM). In addition, the MIC90 against Nakaseomyces glabratus was 256 µg/mL (≈ 227 µM); in the assay with Cryptococcus neoformans [2], 8 µg/mL (≈ 7.11 µM); in the assay on Pichia kudriavzevii, 64 µg/mL (≈ 56.9 µM); in the assay on Candida parapsilosis, 128 µg/mL (≈ 114 µM); in the assay with Candida albicans, 256 µg/mL (≈ 227 µM); with Candida tropicalis, 256 µg/mL (≈ 227 µM).
As for `N=C(N)NCCC[C@@H]1NC(=O)[C@H](CCCNC(=N)N)NC(=O)[C@H](Cc2c[nH]c3ccccc23)NC(=O)[C@H](Cc2c[nH]c3ccccc23)NC(=O)[C@H](CCCNC(=N)N)NC(=O)[C@H](Cc2ccccc2)NC(=O)[C@H](Cc2c[nH]cn2)NC(=O)CNC(=O)[C@H](Cc2c[nH]cn2)NC1=O` (cyclo(FRWWRRHGH)), the minimum inhibitory concentration (MIC) with Nakaseomyces glabratus was 64 µg/mL (≈ 48.5 µM); in the assay on Cryptococcus neoformans [1], 4 µg/mL (≈ 3.03 µM); in the assay with Cryptococcus neoformans [2] it was 2 µg/mL (≈ 1.52 µM); against Pichia kudriavzevii, 32 µg/mL (≈ 24.3 µM); in the assay on Candida parapsilosis it was 32 µg/mL (≈ 24.3 µM); against Candida albicans it was 32 µg/mL (≈ 24.3 µM). The compound further came in with a minimal inhibitory concentration (MIC) with Candida tropicalis of 32 µg/mL (≈ 24.3 µM). Also, the MIC90 in the assay with Nakaseomyces glabratus was determined as 256 µg/mL (≈ 194 µM); against Cryptococcus neoformans [2], 4 µg/mL (≈ 3.03 µM); against Pichia kudriavzevii, 64 µg/mL (≈ 48.5 µM); against Candida parapsilosis, 128 µg/mL (≈ 97 µM); against Candida albicans, 128 µg/mL (≈ 97 µM); against Candida tropicalis it was 128 µg/mL (≈ 97 µM).
With `N=C(N)NCCC[C@@H]1NC(=O)[C@H](CCCNC(=N)N)NC(=O)[C@H](Cc2ccccc2)NC(=O)[C@H](CCCNC(=N)N)NC(=O)[C@H](Cc2c[nH]c3ccccc23)NC(=O)[C@H](Cc2c[nH]c3ccccc23)NC1=O` (cyclo(RRWWRF)), the minimal inhibitory concentration (MIC) against Nakaseomyces glabratus was 128 µg/mL (≈ 130 µM); in the assay on Cryptococcus neoformans [1] it was 8 µg/mL (≈ 8.1 µM); against Cryptococcus neoformans [2], 4 µg/mL (≈ 4.05 µM); against Pichia kudriavzevii, 32 µg/mL (≈ 32.4 µM); in the assay on Candida parapsilosis, 32 µg/mL (≈ 32.4 µM); in the assay on Candida albicans, 128 µg/mL (≈ 130 µM). Besides, 128 µg/mL (≈ 130 µM) was the least that counted as inhibitory in the assay on Candida tropicalis (MIC). Moreover, the MIC90 in the assay on Nakaseomyces glabratus amounted to 512 µg/mL (≈ 518 µM); in the assay with Cryptococcus neoformans [2] it was 64 µg/mL (≈ 64.8 µM); against Pichia kudriavzevii, 512 µg/mL (≈ 518 µM); against Candida parapsilosis, 128 µg/mL (≈ 130 µM); with Candida albicans it was 512 µg/mL (≈ 518 µM); with Candida tropicalis, 512 µg/mL (≈ 518 µM).
Take `C[C@@H]1[C@H](O)[C@@H](C)/C=C/C=C/C=C/C=C/C=C/C=C/C=C/[C@H](O[C@@H]2O[C@H](C)[C@@H](O)[C@H](N)[C@@H]2O)C[C@@H]2O[C@](O)(C[C@@H](O)C[C@@H](O)[C@H](O)CC[C@@H](O)C[C@@H](O)CC(=O)O[C@H]1C)C[C@H](O)[C@H]2C(=O)O` [AMPHOTERICIN B]: the MIC with Nakaseomyces glabratus stood at 0.03 µg/mL (≈ 0.0325 µM); against Cryptococcus neoformans [2], 0.125 µg/mL (≈ 0.135 µM); against Pichia kudriavzevii, 0.03 µg/mL (≈ 0.0325 µM); against Candida parapsilosis, 0.06 µg/mL (≈ 0.0649 µM); with Candida albicans, 0.03 µg/mL (≈ 0.0325 µM); in the assay with Candida tropicalis, 0.03 µg/mL (≈ 0.0325 µM). Further, the MIC90 with Nakaseomyces glabratus amounted to 0.125 µg/mL (≈ 0.135 µM); with Cryptococcus neoformans [2], 0.25 µg/mL (≈ 0.271 µM); in the assay with Pichia kudriavzevii it was 0.06 µg/mL (≈ 0.0649 µM); in the assay on Candida parapsilosis it was 0.06 µg/mL (≈ 0.0649 µM); in the assay with Candida albicans it was 0.125 µg/mL (≈ 0.135 µM); against Candida tropicalis, 0.06 µg/mL (≈ 0.0649 µM).
In the case of `OC(Cn1cncn1)(Cn1cncn1)c1ccc(F)cc1F` [FLUCONAZOLE], the minimum inhibitory concentration (MIC) in the assay with Nakaseomyces glabratus was determined as 4 µg/mL (≈ 13.1 µM); in the assay with Cryptococcus neoformans [2], 2 µg/mL (≈ 6.53 µM); against Pichia kudriavzevii, 16 µg/mL (≈ 52.2 µM); with Candida parapsilosis, 1 µg/mL (≈ 3.27 µM); against Candida albicans, 0.125 µg/mL (≈ 0.408 µM); in the assay on Candida tropicalis, 0.5 µg/mL (≈ 1.63 µM). Moreover, the MIC90 stood at 64 µg/mL (≈ 209 µM) in the assay on Nakaseomyces glabratus; 4 µg/mL (≈ 13.1 µM) against Cryptococcus neoformans [2]; 64 µg/mL (≈ 209 µM) against Pichia kudriavzevii; 2 µg/mL (≈ 6.53 µM) against Candida parapsilosis; 0.25 µg/mL (≈ 0.816 µM) with Candida albicans; 2 µg/mL (≈ 6.53 µM) in the assay on Candida tropicalis.
Take H-HRRWWRF-OH: the minimum inhibitory concentration (MIC) came to 128 µg/mL against Nakaseomyces glabratus; 16 µg/mL against Cryptococcus neoformans [1]; 8 µg/mL in the assay with Cryptococcus neoformans [2]; 128 µg/mL with Pichia kudriavzevii; 128 µg/mL in the assay with Candida parapsilosis; 128 µg/mL in the assay on Candida albicans. Also, the MIC in the assay with Candida tropicalis stood at 128 µg/mL. The MIC90 worked out at 512 µg/mL in the assay on Nakaseomyces glabratus; 16 µg/mL with Cryptococcus neoformans [2]; 256 µg/mL in the assay on Pichia kudriavzevii; 256 µg/mL against Candida parapsilosis; 512 µg/mL with Candida albicans; 512 µg/mL in the assay with Candida tropicalis.
H-RRWWRF-OH: the MIC came out at 128 µg/mL against Nakaseomyces glabratus; 16 µg/mL against Cryptococcus neoformans [1]; 16 µg/mL in the assay with Cryptococcus neoformans [2]; 128 µg/mL in the assay on Pichia kudriavzevii; 64 µg/mL in the assay on Candida parapsilosis; 128 µg/mL against Candida albicans. The compound further registered an MIC in the assay with Candida tropicalis of 128 µg/mL. In addition, the MIC90 worked out at 512 µg/mL in the assay with Nakaseomyces glabratus; 64 µg/mL against Cryptococcus neoformans [2]; 512 µg/mL against Pichia kudriavzevii; 128 µg/mL in the assay on Candida parapsilosis; 512 µg/mL against Candida albicans; 512 µg/mL against Candida tropicalis.

For orientation: MIC means the least concentration at which growth counts as inhibited. Higher therefore signals weaker potency. In general, MIC90 refers to an inhibitory concentration at the 90% level, which refers to growth in some studies and to a panel of isolates in others. Low readings indicate greater potency, high ones weaker potency.
